This note sets out measurements from patent EP4703358A1, “BENZO SIX-MEMBERED HETEROCYCLIC GSPT1 PROTEIN DEGRADATION AGENT AND USE THEREOF” (China Pharmaceutical University, priority 2023, dated 2024).

One assay deals with T1, GSPT1 protein (Homo sapiens, UniProt P15170+Q96SW2).
T1 construct: host or cells: KG-1 cells
Nature of the assay: Degradation of GSPT1 in KG-1 cells (Western blot). Also on record: percent GSPT1 degradation: dose or concentration left out as unconfirmed. Conditions: for percent GSPT1 degradation at 0.2 µM: KG-1 cells, compound concentration 200 nM, 4 hours. Type of assay: cell-based. On the procedure: KG-1 cells (ATCC) were grown in an IMDM culture medium (containing 20% FBS). After centrifugation and counting, the cell concentration was adjusted. The cells were plated onto 6-well plates at 10^6 cells/well, with 1350 µL per well. 150 µL of DMSO and the test compounds of the present disclosure (compound concentration: 200 nM) were added. The plates were incubated in an incubator at 37 °C with 5% CO2 for 4 hours. The cells were centrifuged, and the culture medium was discarded. PBS was added to wash the cells and then discarded. Whole cell lysates were prepared using a protease inhibitor cocktail (100×, Fude Biological), a protein phosphatase inhibitor cocktail (100×, Fude Biological), SuperNuclease (Beyotime), and a high-intensity RIPA lysis buffer (Thermo Fisher) and placed on ice for 30 minutes. After centrifugation, the cell debris precipitates were discarded, and the whole cell lysate supernatants were collected and transferred to new centrifuge tubes. After a BCA protein assay, samples were prepared using a 5× loading buffer (Thermo Fisher). The samples were subjected to protein electrophoresis separation in a 4-20% precast gel (SDS-PAGE gel), transferred to a PVDF membrane, then blocked with 5% NFDM/TBST at room temperature for 1 hour, incubated overnight with primary antibodies at 4 °C, and incubated with a secondary antibody at room temperature for 2 hours the next day. Signals were detected using a MINICHEMITM imaging system.
Primary antibodies: • Anti-GSPT1: Abcam ab234433 • Anti-beta actin: Fude Biological FD0060
Secondary antibody: Anti-rabbit peroxidase-linked secondary antibody: Fude Biological FDG007
The degradation effects of the compounds on GSPT1 protein are shown in Table 1, where A represents a GSPT1 protein degradation percentage of no less than 80%, B represents a degradation percentage of less than 80% but no less than 50%, C represents a degradation percentage of less than 50% but no less than 25%, and D represents a degradation percentage of less than 25%. Table 1. The degradation of GSPT1 protein by compounds
(In general: In western blotting, separated proteins are transferred to a membrane and probed.)

The subject of another assay is KG-1 cells. Briefly: Antiproliferative activity against KG-1 cells (CCK8). The settings on record: Homo sapiens, 72 hours. Type of assay: cell-based. On the procedure:
KG-1 cells in the logarithmic growth phase were diluted in a culture medium (RPMI + 10% FBS) and plated onto 96-well plates at 5000 cells/well, and the plates were incubated in an incubator at 37 °C with 5% CO2 for 24 hours. 10 mM stock solutions of the test compounds of the present disclosure in DMSO were prepared and diluted with the culture medium to set 9 concentration gradients. Three replicate wells were set for each concentration. After compound addition, the plates were incubated in an incubator at 37 °C with 5% CO2 for 72 hours. The cell proliferation was assessed using the CCK8 method. The cell growth inhibition IC50 values of the compounds were determined using an enzyme labeling method. The IC50 values were calculated using GraphPad Prism 7 software.
The antiproliferative activity of the compounds against KG-1 cells is shown in Table 2, where A represents IC50 < 1 nM, B represents 1 ≤ IC50 < 10 nM, C represents 10 nM ≤ IC50 < 100 nM, D represents 100 nM ≤ IC50 < 1000 nM, and E represents IC50 ≥ 1000 nM. Table 2. The antiproliferative activity of compounds against KG-1 cells

T1 sequence (P15170 whole entry): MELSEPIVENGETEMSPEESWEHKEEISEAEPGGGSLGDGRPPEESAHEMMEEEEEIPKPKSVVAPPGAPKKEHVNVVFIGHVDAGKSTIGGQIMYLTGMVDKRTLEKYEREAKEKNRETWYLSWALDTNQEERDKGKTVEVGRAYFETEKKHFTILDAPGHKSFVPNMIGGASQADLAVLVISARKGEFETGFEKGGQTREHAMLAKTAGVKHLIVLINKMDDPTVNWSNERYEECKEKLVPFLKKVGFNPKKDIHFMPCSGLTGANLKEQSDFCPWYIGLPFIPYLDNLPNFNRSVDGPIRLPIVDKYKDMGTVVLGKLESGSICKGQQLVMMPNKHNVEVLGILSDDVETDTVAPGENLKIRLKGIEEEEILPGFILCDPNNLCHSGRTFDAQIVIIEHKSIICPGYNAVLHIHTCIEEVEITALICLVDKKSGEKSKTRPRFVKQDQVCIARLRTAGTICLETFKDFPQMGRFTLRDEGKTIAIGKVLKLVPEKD
T1 sequence (Q96SW2 whole entry): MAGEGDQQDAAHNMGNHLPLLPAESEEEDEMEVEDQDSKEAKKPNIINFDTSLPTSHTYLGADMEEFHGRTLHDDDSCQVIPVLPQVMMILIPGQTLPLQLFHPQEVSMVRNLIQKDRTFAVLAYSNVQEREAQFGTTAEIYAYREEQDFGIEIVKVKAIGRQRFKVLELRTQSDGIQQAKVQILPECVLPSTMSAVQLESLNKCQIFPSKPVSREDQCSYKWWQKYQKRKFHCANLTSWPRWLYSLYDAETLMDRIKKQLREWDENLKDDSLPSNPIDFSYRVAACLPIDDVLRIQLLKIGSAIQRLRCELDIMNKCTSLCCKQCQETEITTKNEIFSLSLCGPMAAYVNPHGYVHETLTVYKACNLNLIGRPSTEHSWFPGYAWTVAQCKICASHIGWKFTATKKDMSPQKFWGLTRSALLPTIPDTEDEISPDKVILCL
T1 sequence (Q16531 whole entry partner): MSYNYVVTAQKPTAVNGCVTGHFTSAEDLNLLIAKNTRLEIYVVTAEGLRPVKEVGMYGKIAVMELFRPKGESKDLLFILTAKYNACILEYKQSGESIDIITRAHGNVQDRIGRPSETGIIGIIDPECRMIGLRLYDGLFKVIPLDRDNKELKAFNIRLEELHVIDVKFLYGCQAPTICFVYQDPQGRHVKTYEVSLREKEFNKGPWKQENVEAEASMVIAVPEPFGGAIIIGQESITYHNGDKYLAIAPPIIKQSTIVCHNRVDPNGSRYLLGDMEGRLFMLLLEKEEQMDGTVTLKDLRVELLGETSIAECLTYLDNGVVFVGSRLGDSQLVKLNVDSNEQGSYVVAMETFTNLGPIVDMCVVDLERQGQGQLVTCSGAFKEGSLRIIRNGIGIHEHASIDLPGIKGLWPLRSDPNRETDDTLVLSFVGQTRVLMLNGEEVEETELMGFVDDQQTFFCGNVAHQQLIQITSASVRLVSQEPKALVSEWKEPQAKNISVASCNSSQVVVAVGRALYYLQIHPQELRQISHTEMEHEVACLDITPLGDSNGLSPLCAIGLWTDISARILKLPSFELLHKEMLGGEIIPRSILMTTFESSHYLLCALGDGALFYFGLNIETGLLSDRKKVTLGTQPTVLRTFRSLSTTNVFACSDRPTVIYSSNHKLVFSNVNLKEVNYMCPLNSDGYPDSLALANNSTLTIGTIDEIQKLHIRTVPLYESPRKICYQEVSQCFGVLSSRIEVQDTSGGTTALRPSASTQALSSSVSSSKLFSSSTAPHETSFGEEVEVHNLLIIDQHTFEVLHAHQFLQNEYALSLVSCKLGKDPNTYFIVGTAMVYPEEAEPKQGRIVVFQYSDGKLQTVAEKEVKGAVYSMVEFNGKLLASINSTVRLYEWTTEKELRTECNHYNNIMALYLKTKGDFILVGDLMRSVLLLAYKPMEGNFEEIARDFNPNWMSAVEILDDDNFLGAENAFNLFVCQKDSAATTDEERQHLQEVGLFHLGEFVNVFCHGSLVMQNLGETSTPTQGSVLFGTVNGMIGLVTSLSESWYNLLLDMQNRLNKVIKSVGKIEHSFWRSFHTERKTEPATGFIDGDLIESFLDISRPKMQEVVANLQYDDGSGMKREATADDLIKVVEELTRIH

The term IC50 denotes the concentration at which inhibition is half-maximal. Regarding `COc1cccc2c1OCC(C(=O)NCc1ccc3c(c1)CN(C1CCC(=O)NC1=O)C3=O)=C2` (centres unmarked) [Compound A-20, N-((2-(2,6-Dioxopiperidin-3-yl)-1-oxoisoindolin-5-yl)methyl)-8-methoxy-2H-chromene-3-carboxamide], on GSPT1 protein, the percent GSPT1 degradation at 0.2 µM is above 80%. The compound also had an IC50 in the assay with KG-1 cells of 1 to 10 nM.
The compound `Cc1cc2c(cc1C)OCC(C(=O)NCc1ccc3c(c1)CN(C1CCC(=O)NC1=O)C3=O)=C2` (centres unmarked) [Compound A-37, N-((2-(2,6-Dioxopiperidin-3-yl)-1-oxoisoindolin-5-yl)methyl)-6,7-dimethyl-2H-chromene-3-carboxamide] had a percent GSPT1 degradation at 0.2 µM at GSPT1 protein above 80%. The compound also yielded an IC50 in the assay on KG-1 cells of 10 to 100 nM.
The compound `O=C1CCC(N2Cc3ccc(CNC(=O)C4=Cc5cc(OC(F)(F)F)ccc5OC4)cc3C2=O)C(=O)N1` (centres unmarked) [Compound A-40, N-((2-(2,6-Dioxopiperidin-3-yl)-3-oxoisoindolin-5-yl)methyl)-6-(trifluoromethoxy)-2H-chromene-3-carboxamide] showed a percent GSPT1 degradation at 0.2 µM at GSPT1 protein of 50 to 80%. The compound also yielded an IC50 in the assay on KG-1 cells of 10 to 100 nM.
Consider `O=C1CCC(N2Cc3cc(CNC(=O)C4=Cc5cc(F)cc(F)c5OC4)ccc3C2=O)C(=O)N1` (centres unmarked) [Compound A-33, N-((2-(2,6-Dioxopiperidin-3-yl)-1-oxoisoindolin-5-yl)methyl)-6,8-difluoro-2H-chromene-3-carboxamide], for which, at GSPT1 protein, the percent GSPT1 degradation at 0.2 µM is above 80%. In the assay with KG-1 cells, this compound registered an IC50 of 1 to 10 nM.
Take `O=C1CCC(N2Cc3cc(CNC(=O)C4=Cc5cc(Cl)ccc5OC4)ccc3C2=O)C(=O)N1` (centres unmarked) [Compound A-6, N-((2-(2,6-Dioxopiperidin-3-yl)-1-oxoisoindolin-5-yl)methyl)-6-chloro-2H-chromene-3-carboxamide]: the percent GSPT1 degradation at GSPT1 protein (KG-1, 4 h, read-out: GSPT1 degradation) is above 80%. This compound returned an IC50 in the assay on KG-1 cells of 10 to 100 nM.
Take `Cc1cccc2c1OCC(C(=O)NCc1ccc3c(c1)CN(C1CCC(=O)NC1=O)C3=O)=C2` (centres unmarked) [Compound A-21, N-((2-(2,6-Dioxopiperidin-3-yl)-1-oxoisoindolin-5-yl)methyl)-8-methyl-2H-chromene-3-carboxamide]: on GSPT1 protein, the percent GSPT1 degradation at 0.2 µM is above 80%. In addition, the IC50 with KG-1 cells lay in the range of 1 to 10 nM.
As to `O=C1CCC(N2Cc3cccc(CNC(=O)C4=Cc5cc(OC(F)(F)F)ccc5OC4)c3C2=O)C(=O)N1` (centres unmarked) [Compound A-39, N-((2-(2,6-Dioxopiperidin-3-yl)-3-oxoisoindolin-4-yl)methyl)-6-(trifluoromethoxy)-2H-chromene-3-carboxamide], on GSPT1 protein, the percent GSPT1 degradation at 0.2 µM lay in the range of 50 to 80%. For the same compound, the IC50 with KG-1 cells was 10 to 100 nM.
The like results for `O=C1CCC(N2Cc3c(CNC(=O)C4=Cc5cc(OC(F)(F)F)ccc5OC4)cccc3C2=O)C(=O)N1` (centres unmarked) [Compound A-41, N-((2-(2,6-Dioxopiperidin-3-yl)-1-oxoisoindolin-4-yl)methyl)-6-(trifluoromethoxy)-2H-chromene-3-carboxamide] were, in that order, 50 to 80% and 10 to 100 nM.
With `O=C1CCC(N2Cc3cc(CNC(=O)C4=Cc5c(F)ccc(F)c5OC4)ccc3C2=O)C(=O)N1` (centres unmarked) [Compound A-36, N-((2-(2,6-Dioxopiperidin-3-yl)-1-oxoisoindolin-5-yl)methyl)-5,8-difluoro-2H-chromene-3-carboxamide], the percent GSPT1 degradation at 0.2 µM at GSPT1 protein is above 80%. Besides, in the assay with KG-1 cells, the IC50 lay in the range of 1 to 10 nM.
On GSPT1 protein, `O=C1CCC(N2Cc3cc(CNC(=O)C4=Cc5cc(NC(=O)CO)ccc5OC4)ccc3C2=O)C(=O)N1` (centres unmarked) [Compound A-25, N-((2-(2,6-Dioxopiperidin-3-yl)-1-oxoisoindolin-5-yl)methyl)-6-(2-hydroxyacetamido)-2H-chromene-3-carboxamide] returned a percent GSPT1 degradation at 0.2 µM of 25 to 50%. In addition, the IC50 with KG-1 cells is at least 1000 nM.
As for `O=C1CCC(N2Cc3cc(CNC(=O)C4=Cc5cc(NC(=O)C6CCC6)ccc5OC4)ccc3C2=O)C(=O)N1` (centres unmarked) [Compound A-27, N-((2-(2,6-Dioxopiperidin-3-yl)-1-oxoisoindolin-5-yl)methyl)-6-(cyclobutanecarboxamido)-2H-chromene-3-carboxamide], at GSPT1 protein, the percent GSPT1 degradation at 0.2 µM is below 25%. Further, in the assay with KG-1 cells, the IC50 lay in the range of 100 to 1000 nM.
In the case of `CC(=O)Nc1ccc2c(c1)C=C(C(=O)NCc1ccc3c(c1)CN(C1CCC(=O)NC1=O)C3=O)CO2` (centres unmarked) [Compound A-23, N-((2-(2,6-Dioxopiperidin-3-yl)-1-oxoisoindolin-5-yl)methyl)-6-(acetamido)-2H-chromene-3-carboxamide], the percent GSPT1 degradation at 0.2 µM on GSPT1 protein was 25 to 50%. The same compound returned an IC50 with KG-1 cells of at least 1000 nM.
As for `O=C1CCC(N2Cc3cc(CNC(=O)C4COc5ccc(F)cc5C4)ccc3C2=O)C(=O)N1` (centres unmarked) [Compound B-2, N-((2-(2,6-Dioxopiperidin-3-yl)-1-oxoisoindolin-5-yl)methyl)-6-fluorochromane-3-carboxamide], the percent GSPT1 degradation at 0.2 µM at GSPT1 protein was above 80%. The compound also showed an IC50 with KG-1 cells of 1 to 10 nM.
For `Cc1cc2c(cc1Cl)OCC(C(=O)NCc1ccc3c(c1)CN(C1CCC(=O)NC1=O)C3=O)=C2` (centres unmarked) [Compound A-29, N-((2-(2,6-Dioxopiperidin-3-yl)-1-oxoisoindolin-5-yl)methyl)-7-chloro-6-methyl-2H-chromene-3-carboxamide], in that order: above 80% and 10 to 100 nM.
For `O=C1CCC(N2Cc3cc(CNC(=O)C4=Cc5cccc(OC(F)(F)F)c5OC4)ccc3C2=O)C(=O)N1` (centres unmarked) [Compound A-19, N-((2-(2,6-Dioxopiperidin-3-yl)-1-oxoisoindolin-5-yl)methyl)-8-trifluoromethoxy-2H-chromene-3-carboxamide], in that order: above 80% and 1 to 10 nM.
For the compound `O=C1CCC(N2Cc3cc(CNC(=O)C4=Cc5cc(NC(=O)C6CC6)ccc5OC4)ccc3C2=O)C(=O)N1` (centres unmarked) [Compound A-26, N-((2-(2,6-Dioxopiperidin-3-yl)-1-oxoisoindolin-5-yl)methyl)-6-(cyclopropanecarboxamido)-2H-chromene-3-carboxamide], at GSPT1 protein, the percent GSPT1 degradation at 0.2 µM is below 25%. In the assay on KG-1 cells, this compound displayed a half-maximal inhibitory concentration (IC50) of 100 to 1000 nM.
For `Nc1ccc2c(c1)C=C(C(=O)NCc1ccc3c(c1)CN(C1CCC(=O)NC1=O)C3=O)CO2` (centres unmarked) [Compound A-12, N-((2-(2,6-Dioxopiperidin-3-yl)-1-oxoisoindolin-5-yl)methyl)-6-amino-2H-chromene-3-carboxamide], in that order: above 80% and 10 to 100 nM.
The like results for `Cc1ccc(C)c2c1C=C(C(=O)NCc1ccc3c(c1)CN(C1CCC(=O)NC1=O)C3=O)CO2` (centres unmarked) [Compound A-38, N-((2-(2,6-Dioxopiperidin-3-yl)-1-oxoisoindolin-5-yl)methyl)-5,8-dimethyl-2H-chromene-3-carboxamide] were, in that order, above 80% and 10 to 100 nM.
As for `O=C1CCC(N2Cc3cc(CNC(=O)C4=Cc5cccc(F)c5OC4)ccc3C2=O)C(=O)N1` (centres unmarked) [Compound A-5, N-((2-(2,6-Dioxopiperidin-3-yl)-1-oxoisoindolin-5-yl)methyl)-8-fluoro-2H-chromene-3-carboxamide], on GSPT1 protein, the percent GSPT1 degradation at 0.2 µM was above 80%. In the assay on KG-1 cells, this compound yielded an IC50 of 1 to 10 nM.
The like results for `CC(C)(C)c1ccc2c(c1)C=C(C(=O)NCc1ccc3c(c1)CN(C1CCC(=O)NC1=O)C3=O)CO2` (centres unmarked) [Compound A-16, N-((2-(2,6-Dioxopiperidin-3-yl)-1-oxoisoindolin-5-yl)methyl)-6-tert-butyl-2H-chromene-3-carboxamide] were, in that order, 50 to 80% and 10 to 100 nM.
Regarding `O=C1CCC(N2Cc3cc(CNC(=O)C4=Cc5c(F)cccc5OC4)ccc3C2=O)C(=O)N1` (centres unmarked) [Compound A-2, N-((2-(2,6-Dioxopiperidin-3-yl)-1-oxoisoindolin-5-yl)methyl)-5-fluoro-2H-chromene-3-carboxamide], the percent GSPT1 degradation at 0.2 µM on GSPT1 protein was above 80%. The compound further registered an IC50 with KG-1 cells of 10 to 100 nM.
For `Cc1cc2c(cc1F)OCC(C(=O)NCc1ccc3c(c1)CN(C1CCC(=O)NC1=O)C3=O)=C2` (centres unmarked) [Compound A-30, N-((2-(2,6-Dioxopiperidin-3-yl)-1-oxoisoindolin-5-yl)methyl)-7-fluoro-6-methyl-2H-chromene-3-carboxamide], in that order: above 80% and 10 to 100 nM.
